# Source: paper PMC5458052 (Nature Communications, 2017)
# Columns and labels:
# [1] = system: P. falciparum strains (sensitive and resistant); assay: microbe, parasite or virus in culture; assay type: cell-based; conditions: Plasmodium falciparum, mean ± SD n=3
# [2] = system: P. falciparum lab lines FC27 and K1; assay: microbe, parasite or virus in culture; assay type: cell-based; conditions: Plasmodium falciparum, median of 3 independent experiments
# [3] = system: P. falciparum strain 3D7^0087/N9; set-up: method as in PMID 19596869; conditions: four consecutive daily doses; cited from earlier work
# [4] = system: P. vivax clinical field isolates; assay: microbe, parasite or virus in culture; assay type: cell-based; conditions: Plasmodium vivax, read-out: Median IC50
structure (smiles),measurement,setting,value
"C[C@H]1[C@H](OC(=O)CCC(=O)O)O[C@@H]2O[C@@]3(C)CC[C@H]4[C@H](C)CC[C@@H]1[C@@]24OO3 [Artesunate, artesunate]",IC50,"[1]; DD2, strain Dd2 (chloroquine resistant)",5.4 ± 1.1 nM
same,IC50,"[1]; HB3, strain HB3 (chloroquine sensitive)",2.8 ± 0.6 nM
same,IC50,"[1]; NF54, strain NF54 (chloroquine sensitive)",4.7 ± 1 nM
same,IC50,[1]; strain 7G8 (chloroquine resistant),1.8 ± 0.4 nM
same,IC50,[1]; strain D6 (chloroquine sensitive),5.8 ± 1.2 nM
same,IC50,[1]; strain FCB (chloroquine resistant),5.8 ± 1.2 nM
same,IC50,[1]; strain K1 (chloroquine resistant),2.8 ± 0.6 nM
same,IC50,[1]; strain V1/S (chloroquine resistant),2.7 ± 0.6 nM
same,IC50,"[2]; K1, FC27 (CQ S) lab line",3.6 nM
same,IC50,"[2]; K1, K1 (CQ R) lab line",5.1 nM
same,ED90,[3],10 mg/kg
same,IC50,[4],0.8 nM
